Experimental data published in the supplement of paper PMC10307832.

Experiments:
Assay in all cases: relative viability (nuclei count vs DMSO), 5 days (fraction); higher = more cells survive
[1] = system: NCI-H1793
Procedure, shortened: (§1)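 Values are medians from duplicate plates. Each reflects relative viability, defined as the nuclei count of treated wells over that of vehicle wells. Lung cancer cell lines in 1536-well plates were pin-tool dosed one day after seeding with one drug alone or with a fixed anchor-drug dose plus five library-drug doses (not always all listed) in √10 steps, then fixed, stained and imaged at 4× after 5 days.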

[2] = system: NCI-H2170
Procedure, shortened: as §1

[3] = system: NCI-H441
Procedure, shortened: as §1

[4] = system: NCI-H1650
Procedure, shortened: as §1

[5] = system: NCI-H322M
Procedure, shortened: as §1

[6] = system: HCC-15
Procedure, shortened: as §1

[7] = system: EPLC-272H
Procedure, shortened: as §1

[8] = system: NCI-H647
Procedure, shortened: as §1

[9] = system: COR-L23
Procedure, shortened: as §1

[10] = system: LOU-NH91
Procedure, shortened: as §1

[11] = system: NCI-H3122
Procedure, shortened: as §1

`CCN(CC)CCCCNc1ncc2cc(-c3cc(OC)cc(OC)c3)c(NC(=O)NC(C)(C)C)nc2n1` + Nc1nc2[nH]cc(CCc3ccc(C(=O)N[C@@H](CCC(=O)O)C(=O)O)cc3)c2c(=O)[nH]1 [Pemetrexed] (partner 0.2 µM) showed a relative viability ([1]; first compound 0.01 µM) of 0.88, a relative viability ([1]; first compound 0.03162 µM) of 0.815 and a relative viability ([1]; first compound 0.1 µM) of 0.988. For the same molecule, the relative viability ([1]; first compound 0.3162 µM) was 0.949, the relative viability ([1]; first compound 1 µM) was 0.548 and the relative viability ([2]; first compound 0.01 µM) was 0.251. For the same molecule, the relative viability ([2]; first compound 0.03162 µM) was 0.293, the relative viability ([2]; first compound 0.1 µM) was 0.262 and the relative viability ([2]; first compound 0.3162 µM) was 0.238. It also gave a relative viability ([2]; first compound 1 µM) of 0.275, a relative viability ([3]; first compound 0.01 µM) of 0.257 and a relative viability ([3]; first compound 0.03162 µM) of 0.232. The relative viability ([3]; first compound 0.1 µM) was 0.26, the relative viability ([3]; first compound 0.3162 µM) was 0.249 and the relative viability ([3]; first compound 1 µM) was 0.25. It also gave a relative viability ([4]; first compound 0.01 µM) of 0.398, a relative viability ([4]; first compound 0.03162 µM) of 0.377 and a relative viability ([4]; first compound 0.1 µM) of 0.352. The relative viability ([4]; first compound 0.3162 µM) was 0.326, the relative viability ([4]; first compound 1 µM) was 0.344 and the relative viability ([5]; first compound 0.01 µM) was 0.612. For the same molecule, the relative viability ([5]; first compound 0.03162 µM) was 0.591, the relative viability ([5]; first compound 0.1 µM) was 0.735 and the relative viability ([5]; first compound 0.3162 µM) was 0.642. The relative viability ([5]; first compound 1 µM) was 0.567, the relative viability ([6]; first compound 0.01 µM) was 0.21 and the relative viability ([6]; first compound 0.03162 µM) was 0.237. For the same molecule, the relative viability ([6]; first compound 0.1 µM) was 0.206, the relative viability ([6]; first compound 0.3162 µM) was 0.209 and the relative viability ([6]; first compound 1 µM) was 0.207. The relative viability ([7]; first compound 0.01 µM) was 0.386, the relative viability ([7]; first compound 0.03162 µM) was 0.271 and the relative viability ([7]; first compound 0.1 µM) was 0.334. The relative viability ([7]; first compound 0.3162 µM) was 0.317, the relative viability ([7]; first compound 1 µM) was 0.26 and the relative viability ([8]; first compound 0.01 µM) was 0.188. It also gave a relative viability ([8]; first compound 0.03162 µM) of 0.127, a relative viability ([8]; first compound 0.1 µM) of 0.157 and a relative viability ([8]; first compound 0.3162 µM) of 0.161. It also gave a relative viability ([8]; first compound 1 µM) of 0.136, a relative viability ([9]; first compound 0.01 µM) of 0.208 and a relative viability ([9]; first compound 0.03162 µM) of 0.188. The relative viability ([9]; first compound 0.1 µM) was 0.192, the relative viability ([9]; first compound 0.3162 µM) was 0.196 and the relative viability ([9]; first compound 1 µM) was 0.192. It also gave a relative viability ([10]; first compound 0.01 µM) of 0.406, a relative viability ([10]; first compound 0.03162 µM) of 0.376 and a relative viability ([10]; first compound 0.1 µM) of 0.641. It also gave a relative viability ([10]; first compound 0.3162 µM) of 0.388, a relative viability ([10]; first compound 1 µM) of 0.433 and a relative viability ([11]; first compound 0.01 µM) of 0.208. For the same molecule, the relative viability ([11]; first compound 0.03162 µM) was 0.186, the relative viability ([11]; first compound 0.1 µM) was 0.208 and the relative viability ([11]; first compound 0.3162 µM) was 0.203. It also gave a relative viability ([11]; first compound 1 µM) of 0.223.
